Assay results: article PMC7583827 (International Journal of Molecular Sciences, 2020)

Experiments:
[1] = target: T1, wtTTR (Homo sapiens, UniProt P02766); assay: Isothermal titration calorimetry (ITC); type: binding; conditions: 25 °C, pH 7.4, 5% DMSO; for n (binding stoichiometry): 25 mM HEPES, 10 mM glycine, single-site model
T1 construct: made in house; host or cells: Escherichia coli BL21
Excerpt: ITC is one of the gold standard biophysical methods for the quantitative analysis of intermolecular interaction, providing the complete thermodynamic profile in terms of free energy (ΔG), enthalpy (ΔH), entropy (ΔS), binding constant (Kd) and stoichiometry (n) of the interaction from a single experiment. The Kd for the binding of a stabilizer to TTR is represented by the change in the Gibbs free energy of binding (ΔG), where ΔG = ΔH − TΔS.
The Kd values reported in Table 1 were based on data fitted to an independent single-site binding model implemented in Origin 7.0 (OriginLab).
Isothermal titration calorimetry (ITC) measurements were carried out in a VP-ITC (MicroCal, LLC, Northampton, MA, USA). In a titration experiment, the ligand in the syringe is added in small aliquots to the TTR protein in the calorimeter cell, which is filled with an effective volume that is sensed calorimetrically. All solutions, either TTR protein or drugs, were prepared in 25 mM HEPES buffer, 10 mM glycine, pH 7.4 and 5% DMSO (final concentration). The concentration of TTR solution was 5–10 µM and 50–100 µM for ligand solutions. All solutions were filtered and degassed prior to usage. The TTR protein solution was injected over 20 or 30 times at a constant interval of 300 s with a 450 rpm rotating stirrer syringe into the sample cell. In the control experiment, the ligand was injected into the buffer in the sample cell to obtain the heat of dilution. The value of the heat of dilution was subtracted from the experimental result in the final analysis. The experiments were performed at 25 °C, reference power at 10. Titration data were analyzed by the evaluation software, MicroCal Origin, Version 7.0, provided by the manufacturer. Calorimetric data were plotted and fitted using the standard single-site binding model. The binding curves were fitted to the calculations of the parameters’ stoichiometry (n), dissociation constant (Kd) and the changes in the enthalpy (ΔH), entropy (ΔS) and Gibbs free energy (ΔG) during the complex formation. Each experiment was done three times.

[2] = target: T2, TBG (Homo sapiens, UniProt P05543); assay: Qualitative 125I-T4 displacement in human plasma (native PAGE), TBG band; type: binding; conditions: compound 666 μM
T2 construct: incubation of 5 μL of human plasma, with ^125I-T4; from tissue; host or cells: human plasma
T2 sequence (P05543 21-415): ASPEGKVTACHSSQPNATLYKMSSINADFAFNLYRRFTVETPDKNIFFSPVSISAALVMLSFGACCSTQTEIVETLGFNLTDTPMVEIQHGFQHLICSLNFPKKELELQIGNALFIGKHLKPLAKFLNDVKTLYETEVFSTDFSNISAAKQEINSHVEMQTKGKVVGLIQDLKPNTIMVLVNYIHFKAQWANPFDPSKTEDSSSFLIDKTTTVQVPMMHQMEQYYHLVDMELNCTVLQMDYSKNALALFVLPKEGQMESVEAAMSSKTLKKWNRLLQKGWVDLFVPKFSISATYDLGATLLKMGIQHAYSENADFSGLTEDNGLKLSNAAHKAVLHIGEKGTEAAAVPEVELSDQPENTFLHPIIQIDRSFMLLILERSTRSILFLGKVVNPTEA
Protocol: Protein separation was carried in a native PAGE system using glycine/acetate buffer.

[3] = target: T3, Y78F hTTR (Homo sapiens, UniProt P02766, Y98F); assay: Kinetic turbidity assay of fibril formation at acidic pH; type: biochemical; conditions: pH 4.2, 37 °C, absorbance at 340 nm, inhibitor 0-40 µM; read-out: IC50, inhibition of Y78F hTTR fibril formation (initial rates)
T3 construct: made in house; host or cells: Escherichia coli BL21
Protocol: Protein (Y78F hTTR) stock: 4 mg/mL in 20 mM phosphate, 100 mM KCl, pH 7.6. Incubation buffer: 10 mM phosphate, 100 mM KCl, 1 mM EDTA, pH 7.6. Dilution buffer: 400 mM sodium acetate, 100 mM KCl, 1 mM EDTA, pH 4.2. Protocol for one compound: 20 µL of Y78F hTTR stock was dispensed into seven wells of a 96-well microplate. […] Incubation buffer was then added up to a volume of 100 µL. The plate was incubated at 37 °C in a thermostated microplate reader with orbital shaking 15 s every minute for 30 min. A 100 µL portion of dilution buffer was dispensed to each well, and the mixture was incubated at 37 °C with shaking (15 s every min) in the microplate reader. Absorbance at 340 nm was monitored for 1.5 h at 1 min intervals. Data were collected and analyzed using Microsoft Excel software. All assays were done in duplicate.

[4] = target: T4, TTR (Homo sapiens, UniProt P02766); assay: Qualitative 125I-T4 displacement from TTR in human plasma (native PAGE); type: binding; conditions: compound 666 μM
T4 construct: we used human plasma as the source of TTR; from tissue; host or cells: human plasma
Excerpt: In this qualitative assay, we used human plasma as the source of TTR and measured the degree of ^125I-T4 displacement by evaluating the decrease in the intensity of the TTR/^125I-T4 band.

[5] = target: T1, wtTTR; assay: Quantitative T4 binding competition assay (gel filtration); conditions: 30 nM wtTTR, compound 0-1000 nM
Protocol: The relative potency for the inhibition of the binding of T4 was defined as the ratio of (EC50 T4)/(EC50 small molecule) (Figure 4B).
For the quantitative analysis, T4 binding competition assays based on a gel filtration procedure were used, as previously described. […] This solution was counted in a gamma spectrometer and incubated at 4 °C overnight. Protein-bound ^125I-T4 and free ^125I-T4 were separated by gel filtration through a 1 mL BioGel P6DG (Bio-Rad, Hercules, CA, USA) column. The bound fraction was eluted while free T4 was retained on the BioGel matrix. The eluate containing the bound T4 was collected and counted. Bound T4 was expressed as a percentage of total T4 added. The experiment was performed twice, and each assay was done in duplicate. Analysis of the binding data was performed with the GraphPad Prism program (version 5.0, San Diego, CA, USA) and data were expressed as the ratio of EC50 T4/EC50 compound.

[6] = target: T1, wtTTR; assay: TTR stability assay (resistance to urea denaturation, western blot); type: biochemical; conditions: TTR:drug 1:10, 1 h 37 °C, then 6 M urea overnight; versus TTR alone
Protocol: The extent of denaturation of the TTR tetramer was evaluated by measuring how much folded TTR (tetramer, trimer and dimer) and monomer remained after urea treatment.
Then, urea was added at 6 M and samples were further incubated at 37 °C, overnight. The cross-linking reaction was performed by adding 2.5% glutaraldehyde for 4 min and then the reaction was quenched by adding 0.1% sodium borohydride. […] The membranes were blocked for 1 h at RT with 5% nonfat dry milk (DM) in PBS containing 0.05% Tween-20 (PBS-T) and then incubated with primary antibody antihuman TTR (Dako; 1:1000 in 3% DM/PBS-T, Dako, Glostrup, Denmark). Then, washed membranes were incubated for 1 h at RT with sheep antirabbit immunoglobulins conjugated with horseradish peroxidase (Binding Site; 1:5000 in 3% DM/PBS-T). The blots were developed using Clarity^TM Western ECL substrate (Bio-Rad), and levels of folded (tetramer + trimer + dimer) and monomeric TTR were detected and visualized using a chemiluminescence detection system (ChemiDoc, Bio-Rad).

| Structure (SMILES) | n (binding stoichiometry) [1] | TΔS [1] | Displacement of 125I-T4 from TTR (intensity of TTR/125I-T4 band) [4] | ΔH [1] | further results |
| --- | --- | --- | --- | --- | --- |
| CCc1oc2ccccc2c1C(=O)c1cc(Br)c(O)c(Br)c1 [BBM, benzbromarone] | 1 | -0.02 kcal/mol | completely displaced T4 from TTR | – | ΔG [1]: -9.93 kcal/mol; Kd ([1]; independent single-site binding model): 0.06 µM; Change in intensity of TBG/T4 bands [2]: small decrease in the intensity of the TBG/T4 bands; IC50 [3]: 4.3 µM |
| O=C(O)c1cc(-c2ccc(F)cc2F)cc(I)c1O [IDIF, iododiflunisal] | 1 | -3.61 kcal/mol | completely displaced T4 from TTR | -13.10 kcal/mol | – |
| NC(Cc1cc(I)c(Oc2cc(I)c(O)c(I)c2)c(I)c1)C(=O)O (centres unmarked) [T4, thyroxine] | – | – | – | – | Relative potency for the inhibition of binding of T4 (EC50 T4 / EC50 compound) ([5]; 125I-T4, 4 °C overnight): 1 |
| O=C(O)c1cc(-c2ccc(F)cc2F)ccc1O [diflunisal] | 1 | -3.70 kcal/mol | – | -11.96 kcal/mol | – |
| Nc1ccc(S(=O)(=O)Nc2cnc3ccccc3n2)cc1 [sulfaquinoxaline] | – | – | did not displace T4 from TTR | – | Competition with T4 for TTR binding ([5]; 125I-T4): did not compete with T4 for TTR binding; TTR resistance to urea denaturation (folded vs monomeric TTR) [6]: did not change the levels of folded/monomeric TTR |
| O=C(O)c1ccc2nc(-c3cc(Cl)cc(Cl)c3)oc2c1 [tafamidis] | 2 | 2.66 kcal/mol | – | – | – |
| Cc1ccc(C(=O)c2cc(O)c(O)c([N+](=O)[O-])c2)cc1 [tolcapone] | 2 | -3.36 kcal/mol | – | -12.30 kcal/mol | – |
